Patent US20030022158A1, “Peptides from the TT virus sequence and monospecific antibodies binding to the TT virus” (priority 1999, published 2003)

How the values were obtained:
[1] = test system: human IgG antibodies in human serum samples; experiment: EIA of human antibody reactivities to overlapping synthetic peptides of TTV ORF1 and ORF2 (Tables 2 and 3); format: binding; conditions: for optical density (OD) at 405 nm: serum diluted 1:100, OD over 0.500 considered positive; for optical density (OD) at 405 nm, EIA reactivity of human serum sample 1: serum sample 1, negative for TTV DNA by PCR; for optical density (OD) at 405 nm, EIA reactivity of human serum sample 1 / optical density (OD) at 405 nm, EIA reactivity of human serum sample 2 / optical density (OD) at 405 nm, EIA reactivity of human serum sample 3 / optical density (OD) at 405 nm, EIA reactivity of human serum sample 4 / optical density (OD) at 405 nm, EIA reactivity of human serum sample 5 / optical density (OD) at 405 nm, EIA reactivity of human serum sample 6 / optical density (OD) at 405 nm, EIA reactivity of human serum sample 7 / optical density (OD) at 405 nm, EIA reactivity of human serum sample 9 / optical density (OD) at 405 nm, EIA reactivity of human serum sample 11 / optical density (OD) at 405 nm, EIA reactivity of human serum sample 18 / optical density (OD) at 405 nm, EIA reactivity of human serum sample 36 / optical density (OD) at 405 nm, EIA reactivity of human serum sample 48 / optical density (OD) at 405 nm, EIA reactivity of human serum sample 98 / optical density (OD) at 405 nm, EIA reactivity of human serum sample 110 / optical density (OD) at 405 nm, EIA reactivity of human serum sample 155 / optical density (OD) at 405 nm, EIA reactivity of human serum sample 157: serum 1:100, peptide coated 10 μg/ml, OD over 0.500 positive; for optical density (OD) at 405 nm, EIA reactivity of human serum sample 2: serum sample 2, negative for TTV DNA by PCR; for optical density (OD) at 405 nm, EIA reactivity of human serum sample 3: serum sample 3, negative for TTV DNA by PCR; for optical density (OD) at 405 nm, EIA reactivity of human serum sample 4: serum sample 4, negative for TTV DNA by PCR; for optical density (OD) at 405 nm, EIA reactivity of human serum sample 5: serum sample 5, negative for TTV DNA by PCR; for optical density (OD) at 405 nm, EIA reactivity of human serum sample 6: serum sample 6, negative for TTV DNA by PCR; for optical density (OD) at 405 nm, EIA reactivity of human serum sample 7: serum sample 7, negative for TTV DNA by PCR; for optical density (OD) at 405 nm, EIA reactivity of human serum sample 9: serum sample 9, positive for TTV DNA by PCR; for optical density (OD) at 405 nm, EIA reactivity of human serum sample 11: serum sample 11, negative for TTV DNA by PCR; for optical density (OD) at 405 nm, EIA reactivity of human serum sample 18: serum sample 18, positive for TTV DNA by PCR; for optical density (OD) at 405 nm, EIA reactivity of human serum sample 36: serum sample 36, positive for TTV DNA by PCR; for optical density (OD) at 405 nm, EIA reactivity of human serum sample 48: serum sample 48, positive for TTV DNA by PCR; for optical density (OD) at 405 nm, EIA reactivity of human serum sample 98: serum sample 98, positive for TTV DNA by PCR; for optical density (OD) at 405 nm, EIA reactivity of human serum sample 110: serum sample 110, positive for TTV DNA by PCR; for optical density (OD) at 405 nm, EIA reactivity of human serum sample 155: serum sample 155, positive for TTV DNA by PCR; for optical density (OD) at 405 nm, EIA reactivity of human serum sample 157: serum sample 157, positive for TTV DNA by PCR
Description: Overlapping peptides (18 amino acids in length containing an 8 amino acid overlap) corresponding to regions of the ORFI and ORF2 of TTV (TABLE 1; Genebank accession no AB008394) were produced by a multiple peptide synthesizer (Syro, Syntex, Germany) using standard Fmoc chemistry (Sallberg et al., Immunology Letters, 30:59 68 (1991), herein expressly incorporated by reference in its entirety).
(§1) The EIAs used to identify which peptides interacted with human sera followed protocols known in the art. (See Zhang et al., J Gen Virol, 78:2735-2746 (1997), herein expressly incorporated by reference in its entirety). Briefly, microplates (Nunc, Denmark) were coated for 48 hours with synthetic peptides at a concentration of 10 μg/ml in 0.05M sodium carbonate buffer pH 9.6. After blocking for 2 hours at room temperature with phosphate buffered saline containing 1% bovine serum albumin, 2% goat serum and 0.05% Tween 20 (dilution buffer) the plates were incubated with human sera diluted 1:100 in dilution buffer. Bound human IgG was detected by incubation with anti-human IgG antibodies conjugated to alkaline phosphatase (Sigma Chemicals, St. Louis, Mo.). The plates were developed by the addition of […] (Sigma) and the optical densities were determined at 405 nm.

[2] = test system: human antibodies in human serum samples; experiment: EIA reactivities of three human serum samples with deletion and alanine substitution analogues of SEQ ID NO: 1 (Table 6); format: binding; conditions: positive = more than 50% of the reactivity of the original peptide
Method: as §1
The reactivity to the TATTTTYAYPGTNRPPV (SEQ ID NO: 1) peptide was further characterized by mapping the reactivity of deletion and substitution peptide analogues.

[3] = human serum sample 1, negative for TTV DNA by PCR
[4] = human serum sample 2, negative for TTV DNA by PCR
[5] = human serum sample 3, negative for TTV DNA by PCR
[6] = human serum sample 4, negative for TTV DNA by PCR
[7] = human serum sample 5, negative for TTV DNA by PCR
[8] = human serum sample 6, negative for TTV DNA by PCR
[9] = human serum sample 7, negative for TTV DNA by PCR
[10] = human serum sample 9, positive for TTV DNA by PCR
[11] = human serum sample 11, negative for TTV DNA by PCR
[12] = human serum sample 18, positive for TTV DNA by PCR
[13] = human serum sample 36, positive for TTV DNA by PCR
[14] = human serum sample 48, positive for TTV DNA by PCR
[15] = human serum sample 98, positive for TTV DNA by PCR
[16] = human serum sample 110, positive for TTV DNA by PCR
[17] = human serum sample 155, positive for TTV DNA by PCR
[18] = human serum sample 157, positive for TTV DNA by PCR

Substance | optical density (OD) at 405 nm [1, 3] | optical density (OD) at 405 nm [1, 4] | optical density (OD) at 405 nm [1, 5] | optical density (OD) at 405 nm [1, 6] | optical density (OD) at 405 nm [1, 7] | optical density (OD) at 405 nm [1, 8] | optical density (OD) at 405 nm [1, 9] | optical density (OD) at 405 nm [1, 10] | optical density (OD) at 405 nm [1, 11] | optical density (OD) at 405 nm [1, 12] | optical density (OD) at 405 nm [1, 13] | optical density (OD) at 405 nm [1, 14] | optical density (OD) at 405 nm [1, 15] | optical density (OD) at 405 nm [1, 16] | optical density (OD) at 405 nm [1, 17] | optical density (OD) at 405 nm [1, 18] | optical density (OD) at 405 nm, EIA reactivity of human serum sample 1 [1] | OD at 405 nm, reactivity of human serum sample P4 [2] | OD at 405 nm, reactivity of human serum sample P7 [2] | OD at 405 nm, reactivity of human serum sample P36 [2] | further results
2: overlapping synthetic peptide of TTV ORF1 (YAYPGTNRPPV) [compound 2] | 0.08 OD | 0.08 OD | 0.07 OD | 0.11 OD | 0.07 OD | 0.09 OD | 0.08 OD | 0.07 OD | 0.14 OD | 0.06 OD | 0.08 OD | 0.10 OD | 0.05 OD | 0.08 OD | 0.07 OD | 0.08 OD | 0.10 OD | 0.647 OD | 1.546 OD | 0.677 OD | optical density (OD) at 405 nm, EIA reactivity of human serum sample 2 [1]: 0.11 OD; optical density (OD) at 405 nm, EIA reactivity of human serum sample 3 [1]: 0.11 OD; optical density (OD) at 405 nm, EIA reactivity of human serum sample 4 [1]: 0.10 OD; optical density (OD) at 405 nm, EIA reactivity of human serum sample 5 [1]: 0.08 OD; optical density (OD) at 405 nm, EIA reactivity of human serum sample 6 [1]: 0.12 OD; optical density (OD) at 405 nm, EIA reactivity of human serum sample 7 [1]: 0.09 OD; optical density (OD) at 405 nm, EIA reactivity of human serum sample 9 [1]: 0.08 OD; optical density (OD) at 405 nm, EIA reactivity of human serum sample 11 [1]: 0.14 OD; optical density (OD) at 405 nm, EIA reactivity of human serum sample 18 [1]: 0.08 OD; optical density (OD) at 405 nm, EIA reactivity of human serum sample 36 [1]: 0.08 OD; optical density (OD) at 405 nm, EIA reactivity of human serum sample 48 [1]: 0.08 OD; optical density (OD) at 405 nm, EIA reactivity of human serum sample 98 [1]: 0.08 OD; optical density (OD) at 405 nm, EIA reactivity of human serum sample 110 [1]: 0.09 OD; optical density (OD) at 405 nm, EIA reactivity of human serum sample 155 [1]: 0.14 OD; optical density (OD) at 405 nm, EIA reactivity of human serum sample 157 [1]: 0.13 OD
20: overlapping synthetic peptide of TTV ORF1 (TATTTTYAYPGTNRPP) [compound 20] | 0.07 OD | 0.06 OD | 0.06 OD | 0.07 OD | 0.06 OD | 0.08 OD | 0.08 OD | 0.08 OD | 0.11 OD | 0.07 OD | 0.07 OD | 0.09 OD | 0.04 OD | 0.06 OD | 0.09 OD | 0.10 OD | 0.09 OD | 0.096 OD | 0.144 OD | 0.086 OD | optical density (OD) at 405 nm, EIA reactivity of human serum sample 2 [1]: 0.10 OD; optical density (OD) at 405 nm, EIA reactivity of human serum sample 3 [1]: 0.09 OD; optical density (OD) at 405 nm, EIA reactivity of human serum sample 4 [1]: 0.08 OD; optical density (OD) at 405 nm, EIA reactivity of human serum sample 5 [1]: 0.07 OD; optical density (OD) at 405 nm, EIA reactivity of human serum sample 6 [1]: 0.10 OD; optical density (OD) at 405 nm, EIA reactivity of human serum sample 7 [1]: 0.07 OD; optical density (OD) at 405 nm, EIA reactivity of human serum sample 9 [1]: 0.10 OD; optical density (OD) at 405 nm, EIA reactivity of human serum sample 11 [1]: 0.09 OD; optical density (OD) at 405 nm, EIA reactivity of human serum sample 18 [1]: 0.10 OD; optical density (OD) at 405 nm, EIA reactivity of human serum sample 36 [1]: 0.08 OD; optical density (OD) at 405 nm, EIA reactivity of human serum sample 48 [1]: 0.08 OD; optical density (OD) at 405 nm, EIA reactivity of human serum sample 98 [1]: 0.08 OD; optical density (OD) at 405 nm, EIA reactivity of human serum sample 110 [1]: 0.10 OD; optical density (OD) at 405 nm, EIA reactivity of human serum sample 155 [1]: 0.14 OD; optical density (OD) at 405 nm, EIA reactivity of human serum sample 157 [1]: 0.16 OD
21: overlapping synthetic peptide of TTV ORF1 (TATTTTYAYPGTNRP) [compound 21] | 0.00 OD | 0.00 OD | 0.00 OD | 0.00 OD | 0.00 OD | 0.00 OD | 0.00 OD | 0.00 OD | 0.00 OD | 0.00 OD | 0.00 OD | 0.00 OD | 0.00 OD | 0.00 OD | 0.00 OD | 0.00 OD |  | 0.100 OD | 0.099 OD | 0.078 OD | 
